# Results from ChEMBL document CHEMBL1201862, “PubChem BioAssay data set” (2004).
#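 Cells were grown in 96-well plates and exposed to each compound for 48 hours at five concentrations; endpoints were interpolated linearly between bracketing concentrations, or set to the highest concentration if not reached. GI50 marks 50% less growth.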 Active and inactive are the calls of the source. Rule as the data show it: active = GI50 up to about 1.1 µM and inactive = higher.
# Experiments:
# Assay in all cases: inhibition of tumour cell growth, NCI panel, 48 h
# [1] = system: KM12
# [2] = system: IGROV-1
# [3] = system: BT-549
# [4] = system: OVCAR-3
# [5] = system: NCI-H522
# [6] = system: SW-620
# [7] = system: UO-31
# [8] = system: NCI-H23
# [9] = system: UACC-257
# [10] = system: CCRF-CEM
# [11] = system: U-251
# [12] = system: SF-295
# [13] = system: RXF 393
# [14] = system: PC-3
# [15] = system: A549
# [16] = system: SK-OV-3
# [17] = system: SF-539
# [18] = system: COLO 205
# [19] = system: 786-0
# [20] = system: MDA-MB-231
# [21] = system: SN12C
# [22] = system: HOP-62
# [23] = system: OVCAR-8
# [24] = system: MCF7
# [25] = system: MOLT-4
# [26] = system: Hs-578T
# [27] = system: SK-MEL-28
# [28] = system: M14
# [29] = system: CAKI-1
# [30] = system: Malme-3M
# [31] = system: OVCAR-5
# [32] = system: HCT-116
# [33] = system: A498
# [34] = system: LOX IMVI
# [35] = system: NCI-H226
# [36] = system: HT-29
# [37] = system: ACHN
# [38] = system: SK-MEL-2
# [39] = system: NCI-H460
# [40] = system: SK-MEL-5
# [41] = system: RPMI-8226
# [42] = system: DU-145
# [43] = system: NCI/ADR-RES
# [44] = system: HOP-92
# [45] = system: EKVX
# [46] = system: OVCAR-4
# [47] = system: MDA-N
# [48] = system: T47D
# [49] = system: UACC-62
# [50] = system: HCT-15
# [51] = system: TK-10
# [52] = system: SF-268
# [53] = system: K562
# [54] = system: SR
# [55] = system: SNB-19
# [56] = system: MDA-MB-435
# [57] = system: HL-60
# [58] = system: SNB-75
# [59] = system: HCC 2998
structure (smiles),measurement,setting,value
COc1ccc2c(C(=O)c3c(C)n(CCN4CCOCC4)c4ccccc34)cccc2c1,GI50,[1],22.9 µM (inactive)
same,GI50,[2],36.6 µM (inactive)
same,GI50,[3],20.2 µM (inactive)
same,GI50,[4],12.1 µM (inactive)
same,GI50,[5],18.7 µM (inactive)
same,GI50,[6],1.27 µM (inactive)
same,GI50,[7],34 µM (inactive)
same,GI50,[8],18.8 µM (inactive)
same,GI50,[9],20.3 µM (inactive)
same,GI50,[10],2.77 µM (inactive)
same,GI50,[11],15.3 µM (inactive)
same,GI50,[12],16.8 µM (inactive)
same,GI50,[13],22.1 µM (inactive)
same,GI50,[14],12.7 µM (inactive)
same,GI50,[15],24.5 µM (inactive)
same,GI50,[16],39.6 µM (inactive)
same,GI50,[17],84.3 µM (inactive)
same,GI50,[18],12.2 µM (inactive)
same,GI50,[19],27.7 µM (inactive)
same,GI50,[20],22.6 µM (inactive)
same,GI50,[21],71 µM (inactive)
same,GI50,[22],71.9 µM (inactive)
same,GI50,[23],18.8 µM (inactive)
same,GI50,[24],11.3 µM (inactive)
same,GI50,[25],19.4 µM (inactive)
same,GI50,[26],10.8 µM (inactive)
same,GI50,[27],> 100 µM (inactive)
same,GI50,[28],22.3 µM (inactive)
same,GI50,[29],59 µM (inactive)
same,GI50,[30],17.5 µM (inactive)
same,GI50,[31],> 100 µM (inactive)
same,GI50,[32],25.5 µM (inactive)
same,GI50,[33],81.8 µM (inactive)
same,GI50,[34],18.9 µM (inactive)
same,GI50,[35],> 100 µM (inactive)
same,GI50,[36],21 µM (inactive)
same,GI50,[37],37.5 µM (inactive)
same,GI50,[38],21.3 µM (inactive)
same,GI50,[39],29 µM (inactive)
same,GI50,[40],17.5 µM (inactive)
same,GI50,[41],24.7 µM (inactive)
same,GI50,[42],38 µM (inactive)
same,GI50,[43],16.9 µM (inactive)
same,GI50,[44],19.8 µM (inactive)
same,GI50,[45],31.6 µM (inactive)
same,GI50,[46],21.2 µM (inactive)
same,GI50,[47],17.9 µM (inactive)
same,GI50,[48],17.4 µM (inactive)
same,GI50,[49],18.2 µM (inactive)
same,GI50,[50],21.3 µM
same,GI50,[51],58.5 µM (inactive)
same,GI50,[52],16.1 µM (inactive)
same,GI50,[53],18.7 µM (inactive)
same,GI50,[54],19.2 µM (inactive)
same,GI50,[55],46.1 µM (inactive)
same,GI50,[56],5.6 µM (inactive)
same,GI50,[57],4.93 µM (inactive)
CC(N/N=C(\S)N1CCCCCC1)c1cccnn1 (stereo not drawn),GI50,[1],0.525 µM (active)
same,GI50,[2],0.361 µM (active)
same,GI50,[3],0.392 µM (active)
same,GI50,[4],0.192 µM (active)
same,GI50,[5],0.2 µM (active)
same,GI50,[6],0.147 µM (active)
same,GI50,[7],0.526 µM (active)
same,GI50,[8],0.254 µM (active)
same,GI50,[9],0.2 µM (active)
same,GI50,[10],0.112 µM (active)
same,GI50,[58],1.75 µM (inactive)
same,GI50,[11],0.326 µM (active)
same,GI50,[12],0.403 µM (active)
same,GI50,[13],0.228 µM (active)
same,GI50,[14],0.104 µM (active)
same,GI50,[15],0.301 µM (active)
same,GI50,[16],0.409 µM (active)
same,GI50,[17],0.194 µM (active)
same,GI50,[18],0.146 µM (active)
same,GI50,[19],0.394 µM (active)
same,GI50,[20],0.553 µM (active)
same,GI50,[21],0.484 µM (active)
same,GI50,[22],0.374 µM (active)
same,GI50,[23],0.239 µM (active)
same,GI50,[24],0.258 µM (active)
same,GI50,[25],0.111 µM (active)
same,GI50,[26],13.2 µM (inactive)
same,GI50,[27],0.482 µM (active)
same,GI50,[28],0.319 µM (active)
same,GI50,[29],0.395 µM (active)
same,GI50,[30],0.192 µM (active)
same,GI50,[31],0.316 µM (active)
same,GI50,[32],0.325 µM (active)
same,GI50,[33],0.764 µM (active)
same,GI50,[34],0.304 µM (active)
same,GI50,[35],0.618 µM (active)
same,GI50,[36],0.483 µM (active)
same,GI50,[37],0.294 µM (active)
same,GI50,[38],1.27 µM (inactive)
same,GI50,[39],0.274 µM (active)
same,GI50,[40],0.248 µM (active)
same,GI50,[41],0.155 µM (active)
same,GI50,[42],0.579 µM (active)
same,GI50,[43],0.409 µM (active)
same,GI50,[45],0.27 µM (active)
same,GI50,[46],0.348 µM (active)
same,GI50,[47],0.684 µM (active)
same,GI50,[48],0.163 µM (active)
same,GI50,[49],0.264 µM (active)
same,GI50,[50],0.386 µM
same,GI50,[51],0.706 µM (active)
same,GI50,[52],0.337 µM (active)
same,GI50,[53],0.2 µM (active)
same,GI50,[54],0.132 µM (active)
same,GI50,[55],0.381 µM (active)
same,GI50,[56],0.61 µM (active)
same,GI50,[59],2.45 µM (inactive)
same,GI50,[57],0.114 µM (active)
CCCC(C)NC(=O)c1ccc(N(C)Cc2cnc3nc(N)nc(N)c3n2)cc1 (stereo not drawn),GI50,[1],31.3 µM (inactive)
same,GI50,[2],17.7 µM (inactive)
same,GI50,[3],15.5 µM (inactive)
same,GI50,[4],21.4 µM (inactive)
same,GI50,[6],28.4 µM (inactive)
same,GI50,[7],46.1 µM (inactive)
same,GI50,[8],29.4 µM (inactive)
same,GI50,[9],15.9 µM (inactive)
same,GI50,[10],26.2 µM (inactive)
same,GI50,[58],24.4 µM (inactive)
same,GI50,[11],14.8 µM (inactive)
same,GI50,[12],27.6 µM (inactive)
same,GI50,[13],26.2 µM (inactive)
same,GI50,[14],9.84 µM (inactive)
same,GI50,[16],41.6 µM (inactive)
same,GI50,[17],11 µM (inactive)
same,GI50,[18],28.2 µM (inactive)
same,GI50,[19],10.5 µM (inactive)
same,GI50,[20],27.5 µM (inactive)
same,GI50,[21],44.6 µM (inactive)
same,GI50,[22],29.5 µM (inactive)
same,GI50,[23],14.9 µM (inactive)
same,GI50,[24],23.3 µM (inactive)
same,GI50,[25],33.2 µM (inactive)
same,GI50,[26],16.2 µM (inactive)
same,GI50,[27],18.5 µM (inactive)
same,GI50,[28],11.5 µM (inactive)
same,GI50,[29],34 µM (inactive)
same,GI50,[30],16.9 µM (inactive)
same,GI50,[31],29.3 µM (inactive)
same,GI50,[32],5.16 µM (inactive)
same,GI50,[33],69 µM (inactive)
same,GI50,[34],5.42 µM (inactive)
same,GI50,[35],19.1 µM (inactive)
same,GI50,[36],17.6 µM (inactive)
same,GI50,[37],35.2 µM (inactive)
same,GI50,[38],21.8 µM (inactive)
same,GI50,[39],21.5 µM (inactive)
same,GI50,[40],10.1 µM (inactive)
same,GI50,[41],91 µM (inactive)
same,GI50,[42],27.2 µM (inactive)
same,GI50,[43],> 100 µM (inactive)
same,GI50,[45],56.9 µM (inactive)
same,GI50,[47],14.6 µM (inactive)
same,GI50,[48],24 µM (inactive)
same,GI50,[49],6.3 µM (inactive)
same,GI50,[50],26.4 µM
same,GI50,[51],31.3 µM (inactive)
same,GI50,[52],12 µM (inactive)
same,GI50,[53],8 µM (inactive)
same,GI50,[54],17.6 µM (inactive)
same,GI50,[55],22.6 µM (inactive)
same,GI50,[56],11.7 µM (inactive)
same,GI50,[57],16.4 µM (inactive)
COc1ccc(NC(C)=O)c(C(O)CCNC(C)=O)c1 (stereo not drawn),GI50,[1],> 100 µM (inactive)
same,GI50,[2],> 100 µM (inactive)
same,GI50,[3],> 100 µM (inactive)
same,GI50,[4],> 100 µM (inactive)
same,GI50,[5],> 100 µM (inactive)
same,GI50,[6],> 100 µM (inactive)
same,GI50,[7],> 100 µM (inactive)
same,GI50,[8],> 100 µM (inactive)
same,GI50,[9],> 100 µM (inactive)
same,GI50,[10],> 100 µM (inactive)
same,GI50,[58],> 100 µM (inactive)
same,GI50,[11],> 100 µM (inactive)
same,GI50,[12],> 100 µM (inactive)
same,GI50,[13],> 100 µM (inactive)
same,GI50,[14],> 100 µM (inactive)
same,GI50,[15],> 100 µM (inactive)
same,GI50,[16],> 100 µM (inactive)
same,GI50,[17],> 100 µM (inactive)
same,GI50,[18],> 100 µM (inactive)
same,GI50,[19],> 100 µM (inactive)
same,GI50,[20],> 100 µM (inactive)
same,GI50,[21],> 100 µM (inactive)
same,GI50,[23],> 100 µM (inactive)
same,GI50,[24],> 100 µM (inactive)
same,GI50,[25],> 100 µM (inactive)
same,GI50,[26],> 100 µM (inactive)
same,GI50,[28],> 100 µM (inactive)
same,GI50,[29],> 100 µM (inactive)
same,GI50,[31],> 100 µM (inactive)
same,GI50,[32],> 100 µM (inactive)
same,GI50,[33],31.5 µM (inactive)
same,GI50,[34],> 100 µM (inactive)
same,GI50,[35],> 100 µM (inactive)
same,GI50,[36],> 100 µM (inactive)
same,GI50,[37],> 100 µM (inactive)
same,GI50,[38],> 100 µM (inactive)
same,GI50,[39],> 100 µM (inactive)
same,GI50,[40],> 100 µM (inactive)
same,GI50,[41],> 100 µM (inactive)
same,GI50,[42],> 100 µM (inactive)
same,GI50,[43],> 100 µM (inactive)
same,GI50,[44],> 100 µM (inactive)
same,GI50,[45],> 100 µM (inactive)
same,GI50,[46],> 100 µM (inactive)
same,GI50,[47],> 100 µM (inactive)
same,GI50,[48],> 100 µM (inactive)
same,GI50,[49],> 100 µM (inactive)
same,GI50,[50],> 100 µM
same,GI50,[51],> 100 µM (inactive)
same,GI50,[52],> 100 µM (inactive)
same,GI50,[54],> 100 µM (inactive)
same,GI50,[55],> 100 µM (inactive)
same,GI50,[56],> 100 µM (inactive)
same,GI50,[57],> 100 µM (inactive)
